Reference: US9238631B2, “Radiolabeled amino acids for diagnostic imaging” (PIRAMAL IMAGING SA, priority 2011, dated 2016)
Values belong to the molecule of their own block, whether it stands above or below them.

Tests used:
[1] = biological target: T1, xCT (SLC7A11) (Homo sapiens, UniProt Q9UPY5); assay: Competition profile indicating uptake via xCT (SLC7A11); format: cell-based; settings: NCI-H460 cells; for reduction of [^18F]-12 uptake by excess competitor: competitor 1 mM; for competition profile / uptake mechanism of the tracer: co-incubation with 1 mM cold competitors
T1 construct: NCI-H460 tumor cells were co-incubated with the F-18 labeled tracer and several cold derivatives; endogenous in cells; host or cells: NCI-H460 tumor cells
T1 sequence (Q9UPY5 1-501): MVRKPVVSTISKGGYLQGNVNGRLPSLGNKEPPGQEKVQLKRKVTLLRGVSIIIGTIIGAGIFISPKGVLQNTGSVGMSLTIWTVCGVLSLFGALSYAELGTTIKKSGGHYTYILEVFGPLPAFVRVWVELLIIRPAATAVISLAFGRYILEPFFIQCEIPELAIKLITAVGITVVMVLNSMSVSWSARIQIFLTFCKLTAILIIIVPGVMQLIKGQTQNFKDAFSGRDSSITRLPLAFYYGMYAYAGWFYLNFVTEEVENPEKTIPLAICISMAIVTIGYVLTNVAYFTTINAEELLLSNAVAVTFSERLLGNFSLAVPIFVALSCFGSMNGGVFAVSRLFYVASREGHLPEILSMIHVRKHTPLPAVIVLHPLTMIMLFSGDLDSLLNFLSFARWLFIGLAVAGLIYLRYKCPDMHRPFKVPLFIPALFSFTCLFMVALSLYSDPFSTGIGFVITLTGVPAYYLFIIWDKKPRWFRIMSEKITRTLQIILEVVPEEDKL
T1 sequence (P08195 1-529 partner): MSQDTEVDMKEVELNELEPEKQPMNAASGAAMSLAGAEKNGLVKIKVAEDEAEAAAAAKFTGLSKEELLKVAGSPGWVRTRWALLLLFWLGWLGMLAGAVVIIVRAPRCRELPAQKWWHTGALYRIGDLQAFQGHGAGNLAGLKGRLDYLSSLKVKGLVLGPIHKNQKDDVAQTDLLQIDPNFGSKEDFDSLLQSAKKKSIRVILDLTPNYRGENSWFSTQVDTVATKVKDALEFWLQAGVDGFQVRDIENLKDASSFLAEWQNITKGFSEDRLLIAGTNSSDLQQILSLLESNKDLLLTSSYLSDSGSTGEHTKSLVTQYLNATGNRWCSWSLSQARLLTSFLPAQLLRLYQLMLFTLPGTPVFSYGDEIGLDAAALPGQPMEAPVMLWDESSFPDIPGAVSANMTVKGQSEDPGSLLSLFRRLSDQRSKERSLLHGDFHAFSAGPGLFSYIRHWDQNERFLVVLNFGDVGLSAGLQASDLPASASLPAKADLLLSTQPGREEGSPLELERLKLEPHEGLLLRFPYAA
Protocol: For determination of the responsible uptake mechanism, NCI-H460 tumor cells were co-incubated with the F-18 labeled tracer and several cold derivatives. These derivatives were used at a concentration of 1 mM, which is a large excess compared to the tracer. L-Glutamic acid, L-cystine, Carboxyphenylglycine (CPG) were used as competitors. In addition, also D-Glutamic acid, as well as L-aspartic acid and D-aspartic acid were used in this competition experiments. […] The same experiments were performed using [^18F]-1, [^18F]-4, [^18F]-9, [^18F]-8, [^18F]-25 and [^18F]-22.

[2] = tested on: NCI-H460 (human NSCLC) cells; assay: In vitro cell-uptake study: blocking of radiolabeled glutamate derivative uptake; format: cell-based; settings: compound 1 mM, 30 minutes, mean ± SD, without compound = 100%
Protocol: The ability of compounds from the present invention to compete with radiolabeled glutamate derivatives for uptake into tumor cells was examined. NCI-H460 (human NSCLC) cells, grown adherently in 48 well plates were used for these competition-experiments. Approximately 100.000 cells were co-incubated in PBS-buffer containing 0.1% BSA with a radiolabeled Glutamic acid derivative and several compounds, which were used at a concentration of 1 mM for 30 minutes. After this time, the cell bound radioactivity was determined.

[3] = tested on: NCI-H460 (human NSCLC) cells; assay: Cell uptake studies: 30 min uptake in H460 cells; format: cell-based; settings: 0.25 MBq tracer, PBS 0.1% BSA
Protocol: For determination of the biological activity, the F18 labeled derivatives were used as tracers in cell uptake experiments. NCI-H460 (human NSCLC) cells, grown adherently in 48 well plates were used for these uptake-experiments. Approximately 100.000 cells were incubated with 0.25 MBq of the tracers for 30 min in PBS-buffer containing 0.1% BSA. After this time, the cell-bound radioactivity was determined using a γ-counter.

[4] = tested on: NCI-H460 tumor; assay: In vivo biodistribution in NCI-H460 tumor bearing mice; settings: for T/Blood / T/Muscle: 1 h post injection
Protocol: (§1) To test the pharmacokinetic properties of compounds from the present invention, all F18-labeled compounds were examined by biodistribution studies in NCI-H460 tumor bearing mice. Female NMRI (nu/nu) mice were inoculated with 5×10^6 NCI-H460 tumor cells 8 to 10 days before the biodistribution studies. 185 kBq of activity of the fluorinated compound was injected and at least n=3 mice were used for every time point. After injection of the F18-labeled compound, mice were sacrificed at defined time-points. All organs were removed and radioactivity was determined using a γ-counter.
To compare the tumor uptake and retention of radioactivity of different ^18F-labeled derivatives from the present invention, biodistribution studies were performed in NCI-H460 tumor bearing NMRI (nu/nu) mice as described above.
To compare the kidney clearance of several ^18F-labeled derivatives from the present invention, biodistribution studies were performed in NCI-H460 tumor bearing female NMRI (nu/nu) mice as described above. […] After 2 h p.i., less than 1% ID/g can be found in the kidneys.
For comparison of pancreas uptake and clearance of several ^18F-labeled derivatives from the present invention, biodistribution studies were performed in NCI-H460 tumor bearing NMRI (nu/nu) mice as described above. […] After 2 h p.i., less than 2% ID/g can be found in the pancreas.
as §1, with “and” for “for every time point. After injection of the F18-labeled compound, mice were”, “time-points raning from 15 min pi up to 2 h p.i.” for “time-points.”, “γ-counter. […] High tumor uptake values of >3% ID/g were obtained with various compounds from the present invention.” for “γ-counter.”

SMILES: N[C@H](CCC(=O)O)C(=O)O [D-Glutamic acid, reference compound]
- reduction of [^18F]-12 uptake by excess competitor [1]: less effective competitors

- reduction of [^18F]-12 uptake by excess competitor [1]: less effective competitors
SMILES: N[C@H](CC(=O)O)C(=O)O [D-aspartic acid, reference compound]

SMILES: N[C@@H](C[C@H](Cc1ccc(OCCF)cc1)C(=O)O)C(=O)O [Example 1, (4S)-4-[4-(2-Fluoroethoxy)benzyl]-L-glutamic acid]
- Uptake of radiolabeled glutamate-derivative (% of control) [2]: 5.0 ± 0.2 % of control

SMILES: N[C@@H](C[C@H](Cc1ccc(OCCCF)cc1)C(=O)O)C(=O)O [Example 4, (4S)-4-[4-(3-Fluoropropoxy)benzyl]-L-glutamic acid]
- Uptake of radiolabeled glutamate-derivative (% of control) [2]: 3.0 ± 0.1 % of control

SMILES: N[C@@H](CC(Cc1ccc(CCCF)cc1)C(=O)O)C(=O)O (stereo partly drawn) [Example 9, 4-[4-(3-Fluoropropyl)benzyl]-L-glutamic acid]
- Uptake of radiolabeled glutamate-derivative (% of control) [2]: 14.2 ± 1.0 % of control

SMILES: N[C@@H](CCC(Cc1ccc(OCCF)cc1)C(=O)O)C(=O)O (stereo partly drawn) [Example 12, (2S)-2-Amino-5-[4-(2-Fluoroethoxy)benzyl]-hexanedioic acid]
- Uptake of radiolabeled glutamate-derivative (% of control) [2]: 3.9 ± 0.3 % of control

SMILES: N[C@@H](CC(CCCc1ccc(CCCF)cc1)C(=O)O)C(=O)O (stereo partly drawn) [Example 19, 4-{3-[4-(3-Fluoropropyl)phenyl]propyl}-L-glutamic acid]
- Uptake of radiolabeled glutamate-derivative (% of control) [2]: 6.6 ± 1.6 % of control

SMILES: N[C@H](C[C@@H](Cc1ccc(OCCF)cc1)C(=O)O)C(=O)O [Example 23, (4R)-4-[4-(2-Fluoroethoxy)benzyl]-D-glutamic acid]
- Uptake of radiolabeled glutamate-derivative (% of control) [2]: 43.8 ± 3.2 % of control

SMILES: N[C@H](C[C@@H](Cc1ccc(OCCCF)cc1)C(=O)O)C(=O)O [Example 24, (4R)-4-[4-(3-Fluoropropoxy)benzyl]-D-glutamic acid]
- Uptake of radiolabeled glutamate-derivative (% of control) [2]: 36.5 ± 3.8 % of control

SMILES: N[C@@H](C[C@H](CCCc1ccc(OCCF)cc1)C(=O)O)C(=O)O [Example 25, (4S)-4-{3-[4-(2-Fluoroethoxy)phenyl]propyl}-L-glutamic acid]
- Uptake of radiolabeled glutamate-derivative (% of control) [2]: 20.1 ± 0.4 % of control

- reduction of [^18F]-12 uptake by excess competitor [1]: less effective competitors
SMILES: N[C@@H](CC(=O)O)C(=O)O [L-aspartic, L-aspartic acid, reference compound]

SMILES: N[C@@H](CSSC[C@H](N)C(=O)O)C(=O)O [L-cystine, reference compound]
- Uptake of radiolabeled glutamate-derivative (% of control) [2]: 10.7 ± 0.7 % of control

SMILES: N[C@@H](CCC(=O)O)C(=O)O [L-glutamic acid, L-glutamate, reference compound]
- Uptake of radiolabeled glutamate-derivative (% of control) [2]: 26.1 ± 0.3 % of control

- competition profile / uptake mechanism of the tracer [1]: identical competition profile
- Kidney (% ID/g at 1 h p.i.) [4]: 2.8 ± 0.6 % ID/g
- Liver (% ID/g at 1 h p.i.) [4]: 1.3 ± 0.3 % ID/g
- Pancreas (% ID/g at 1 h p.i.) [4]: 2.2 ± 0.4 % ID/g
- Tumor (% ID/g at 1 h p.i.) [4]: 4.6 ± 0.9 % ID/g
- Urine (% ID at 1 h p.i.) [4]: 92.7 ± 3.8 % ID
- T/Blood [4]: 26.8
- T/Muscle [4]: 46.3
SMILES: N[C@@H](CC(Cc1ccc(NCCC[18F])cc1)C(=O)O)C(=O)O (stereo partly drawn) [[^18F]-8, 4-{4-[(3-[^18F]Fluoropropyl)amino]benzyl}-L-glutamic acid]
- 30 min uptake into H460 cells [%/100.000 cells] [3]: 15.3 ± 0.1 %/100.000 cells

- competition profile / uptake mechanism of the tracer [1]: identical competition profile
- Kidney (% ID/g at 1 h p.i.) [4]: 0.7 ± 0.04 % ID/g
- Liver (% ID/g at 1 h p.i.) [4]: 0.2 ± 0.1 % ID/g
- Pancreas (% ID/g at 1 h p.i.) [4]: 0.1 ± 0.01 % ID/g
- Tumor (% ID/g at 1 h p.i.) [4]: 1.8 ± 0.9 % ID/g
- Urine (% ID at 1 h p.i.) [4]: 86.3 ± 7.1 % ID
- T/Blood [4]: 20.5
- T/Muscle [4]: 61.7
SMILES: N[C@@H](CC(Cc1ccc(CCC[18F])cc1)C(=O)O)C(=O)O (stereo partly drawn) [[^18F]-9, 4-[4-(3-[^18F]Fluoropropyl)benzyl]-L-glutamic acid]
- 30 min uptake into H460 cells [%/100.000 cells] [3]: 4.3 ± 0.2 %/100.000 cells

- competition profile / uptake mechanism of the tracer [1]: identical competition profile
- Kidney (% ID/g at 1 h p.i.) [4]: 0.2 ± 0.05 % ID/g
- Liver (% ID/g at 1 h p.i.) [4]: 0.2 ± 0.1 % ID/g
- Pancreas (% ID/g at 1 h p.i.) [4]: 0.04 ± 0.01 % ID/g
- Tumor (% ID/g at 1 h p.i.) [4]: 0.5 ± 0.1 % ID/g
- Urine (% ID at 1 h p.i.) [4]: 86.6 ± 4.4 % ID
- T/Blood [4]: 9.7
- T/Muscle [4]: 32.2
SMILES: N[C@@H](C[C@H](CCCc1ccc(OCC[18F])cc1)C(=O)O)C(=O)O [[^18F]-25, (4S)-4-{3-[4-(2-[^18F]Fluoroethoxy)phenyl]propyl}-L-glutamic acid]
- 30 min uptake into H460 cells [%/100.000 cells] [3]: 3.1 ± 01 %/100.000 cells
